Test [1] concerns HCV genotype 1a (H77 strain) replicon in HUH-7 cells. The test is described as follows: HCV replicon luciferase reporter assay, genotype 1a. It is filed as cell-based. The settings on record: Hepatitis C virus, Huh-7, 72 h, HCV genotype 1a replicon luciferase, 3 days incubation, read-out: LE_1a (EC50, range). In a few lines:
(§1)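 Replicon inhibition for both genotypes was measured as Renilla luciferase signal (EnduRen, 7.5 μM final, 2 h) after 3-day, 37° C exposure of replicon-bearing HUH-7 cells in 4% FCS DMEM, 0.5% DMSO. The 1b construct carries S1179I; the 1a H77 construct carries P1496L and S2204I. Twenty-point, 3-fold dilutions were fitted four-parametrically for EC50, and CC50 was taken from multiplexed Cell Titer-Blue.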
In general terms: In antiviral work, replicon cells carry a viral genome segment that copies itself.

Test [2] relates to HCV genotype 1b (Con1) replicon in HUH-7 cells. Put plainly: HCV replicon luciferase reporter assay, genotype 1b. The settings on record: Hepatitis C virus, Huh-7, 72 h, HCV genotype 1b replicon luciferase, 3 days incubation, read-out: LE_1b (EC50, range). The format is cell-based. In a few lines:
as §1

Usually EC50 stands for the concentration that produces a half-maximal response. With `COc1ccc2c(O[C@@H]3C[C@H]4C(=O)N[C@]5(C(=O)NS(=O)(=O)C6(C)CC6)C[C@H]5/C=C\CC[C@@H](C)C[C@@H](C)[C@H](NC(=O)OC(C)(C)C)C(=O)N4C3)nc(OC(C)C)cc2c1` [Compound 3196, tert-butyl ((2R,6S,7R,9R,13aS,14aR,16aS,Z)-2-((3-isopropoxy-6-methoxyisoquinolin-1-yl)oxy)-7,9-dimethyl-14a-(((1-methylcyclopropyl)sulfonyl)carbamoyl)-5,16-dioxo-1,2,3,5,6,7,8,9,10,11,13a,14,14a,15,16,16a-hexadecahydrocyclopropa[e]pyrrolo[1,2-a][1,4]diazacyclopentadecin-6-yl)carbamate], the EC50 in test [1] was in the range of 0.51 to 1 nM; in test [2], 0.1 to 0.5 nM.
Consider `CCOc1cc2cc(OC)ccc2c(O[C@@H]2C[C@H]3C(=O)N[C@]4(C(=O)NS(=O)(=O)C5(C)CC5)C[C@H]4/C=C\CC[C@@H](C)C[C@@H](C)[C@H](NC(=O)OC(C)(C)C(F)(F)F)C(=O)N3C2)n1` [Compound 3198, 1,1,1-trifluoro-2-methylpropan-2-yl((2R,6S,7R,9R,13aS,14aR,16aS,Z)-2-((3-ethoxy-6-methoxyisoquinolin-1-yl)oxy)-7,9-dimethyl-14a-(((1-methylcyclopropyl)sulfonyl)carbamoyl)-5,16-dioxo-1,2,3,5,6,7,8,9,10,11,13a,14,14a,15,16,16a-hexadecahydrocyclopropa[e]pyrrolo[1,2-a][1,4]diazacyclopentadecin-6-yl)carbamate], for which the EC50 lay in the range of 0.51 to 1 nM in test [1] and 1.01 to 5 nM in test [2].
Turning to `CCOc1cc2cc(OC)ccc2c(O[C@@H]2C[C@H]3C(=O)N[C@]4(C(=O)NS(=O)(=O)C5(C)CC5)C[C@H]4/C=C\CC[C@@H](C)C[C@@H](C)[C@H](NC(=O)OC(C)(C)C(C)(F)F)C(=O)N3C2)n1` [Compound 3200, 3,3-difluoro-2-methylbutan-2-yl((2R,6S,7R,9R,13aS,14aR,16aS,Z)-2-((3-ethoxy-6-methoxyisoquinolin-1-yl)oxy)-7,9-dimethyl-14a-(((1-methylcyclopropyl)sulfonyl)carbamoyl)-5,16-dioxo-1,2,3,5,6,7,8,9,10,11,13a,14,14a,15,16,16a-hexadecahydrocyclopropa[e]pyrrolo[1,2-a][1,4]diazacyclopentadecin-6-yl)carbamate], the EC50 in test [1] and in test [2] was 0.51 to 1 nM each time.
In the case of `COc1ccc2c(O[C@@H]3C[C@H]4C(=O)N[C@]5(C(=O)NS(=O)(=O)C6(C)CC6)C[C@H]5/C=C\CC[C@@H](C)C[C@@H](C)[C@H](NC(=O)OC(C)(C)C(F)(F)F)C(=O)N4C3)nc(OC(C)C)cc2c1` [Compound 3202, 1,1,1-trifluoro-2-methylpropan-2-yl((2R,6S,7R,9R,13aS,14aR,16aS,Z)-2-((3-isopropoxy-6-methoxyisoquinolin-1-yl)oxy)-7,9-dimethyl-14a-(((1-methylcyclopropyl)sulfonyl)carbamoyl)-5,16-dioxo-1,2,3,5,6,7,8,9,10,11,13a,14,14a,15,16,16a-hexadecahydrocyclopropa[e]pyrrolo[1,2-a][1,4]diazacyclopentadecin-6-yl)carbamate], the EC50 in test [1] and in test [2] was 1.01 to 5 nM in each case.
With `COc1ccc2c(O[C@@H]3C[C@H]4C(=O)N[C@]5(C(=O)NS(=O)(=O)C6(C)CC6)C[C@H]5/C=C\CC[C@@H](C)C[C@@H](C)[C@H](NC(=O)OC(C)(C)C(C)(F)F)C(=O)N4C3)nc(OC(C)C)cc2c1` [Compound 3204, 3,3-difluoro-2-methylbutan-2-yl((2R,6S,7R,9R,13aS,14aR,16aS,Z)-2-((3-isopropoxy-6-methoxyisoquinolin-1-yl)oxy)-7,9-dimethyl-14a-(((1-methylcyclopropyl)sulfonyl)carbamoyl)-5,16-dioxo-1,2,3,5,6,7,8,9,10,11,13a,14,14a,15,16,16a-hexadecahydrocyclopropa[e]pyrrolo[1,2-a][1,4]diazacyclopentadecin-6-yl)carbamate], the half-maximal effective concentration (EC50) lay in the range of 0.51 to 1 nM in test [1] and 1.01 to 5 nM in test [2].
The matching figures for `CC[C@@H]1C[C@H](C)CC/C=C\[C@@H]2C[C@@]2(C(=O)NS(=O)(=O)C2(C)CC2)NC(=O)[C@@H]2C[C@@H](Oc3ncc(OC)c4cc(N(C)C)ccc34)CN2C(=O)[C@H]1NC(=O)OC(C)(C)C` [Compound 3206, tert-butyl ((2R,6S,7R,9R,13aS,14aR,16aS,Z)-2-((6-(dimethylamino)-4-methoxyisoquinolin-1-yl)oxy)-7-ethyl-9-methyl-14a-(((1-methylcyclopropyl)sulfonyl)carbamoyl)-5,16-dioxo-1,2,3,5,6,7,8,9,10,11,13a,14,14a,15,16,16a-hexadecahydrocyclopropa[e]pyrrolo[1,2-a][1,4]diazacyclopentadecin-6-yl)carbamate]: 1.01 to 5 nM and 1.01 to 5 nM.
For the molecule `CC[C@@H]1C[C@H](C)CC/C=C\[C@@H]2C[C@@]2(C(=O)NS(=O)(=O)C2(C)CC2)NC(=O)[C@@H]2C[C@@H](Oc3ncc(OC)c4cc(N(C)C)ccc34)CN2C(=O)[C@H]1NC(=O)OC(C)(C)C(F)(F)F` [Compound 3208, 1,1,1-trifluoro-2-methylpropan-2-yl((2R,6S,7R,9R,13aS,14aR,16aS,Z)-2-((6-(dimethylamino)-4-methoxyisoquinolin-1-yl)oxy)-7-ethyl-9-methyl-14a-(((1-methylcyclopropyl)sulfonyl)carbamoyl)-5,16-dioxo-1,2,3,5,6,7,8,9,10,11,13a,14,14a,15,16,16a-hexadecahydrocyclopropa[e]pyrrolo[1,2-a][1,4]diazacyclopentadecin-6-yl)carbamate], the EC50 in test [1] lay in the range of 1.01 to 5 nM; in test [2], 0.51 to 1 nM.
For `COc1cc2cc(F)ccc2c(O[C@@H]2C[C@H]3C(=O)N[C@]4(C(=O)NS(=O)(=O)C5(CF)CC5)C[C@H]4/C=C\CC[C@@H](C)C[C@@H](C)[C@H](NC(=O)OC(C)(C)C)C(=O)N3C2)n1` [Compound 3210, tert-butyl ((2R,6S,7R,9R,13aS,14aR,16aS,Z)-2-((6-fluoro-3-methoxyisoquinolin-1-yl)oxy)-14a-(((1-(fluoromethyl)cyclopropyl)sulfonyl)carbamoyl)-7,9-dimethyl-5,16-dioxo-1,2,3,5,6,7,8,9,10,11,13a,14,14a,15,16,16a-hexadecahydrocyclopropa[e]pyrrolo[1,2-a][1,4]diazacyclopentadecin-6-yl)carbamate], the values for the EC50 in test [1] and in test [2] were 1.01 to 5 nM and 0.1 to 0.5 nM, respectively.
Consider `CC[C@@H]1C[C@H](C)CC/C=C\[C@@H]2C[C@@]2(C(=O)NS(=O)(=O)C2(C)CC2)NC(=O)[C@@H]2C[C@@H](Oc3nc(OC)cc4cc(F)ccc34)CN2C(=O)[C@H]1NC(=O)OC(C)(C)C` [Compound 3212, tert-butyl ((2R,6S,7R,9R,13aS,14aR,16aS,Z)-7-ethyl-2-((6-fluoro-3-methoxyisoquinolin-1-yl)oxy)-9-methyl-14a-(((1-methylcyclopropyl)sulfonyl)carbamoyl)-5,16-dioxo-1,2,3,5,6,7,8,9,10,11,13a,14,14a,15,16,16a-hexadecahydrocyclopropa[e]pyrrolo[1,2-a][1,4]diazacyclopentadecin-6-yl)carbamate], for which the values for the EC50 in test [1] and in test [2] were 0.51 to 1 nM and 0.1 to 0.5 nM, respectively.
On to `COc1cc2cc(F)ccc2c(O[C@@H]2C[C@H]3C(=O)N[C@]4(C(=O)NS(=O)(=O)C5(CF)CC5)C[C@H]4/C=C\CC[C@@H](C)C[C@@H](C)[C@H](NC(=O)OC(C)(C)C(F)(F)F)C(=O)N3C2)n1` [Compound 3214, 1,1,1-trifluoro-2-methylpropan-2-yl((2R,6S,7R,9R,13aS,14aR,16aS,Z)-2-((6-fluoro-3-methoxyisoquinolin-1-yl)oxy)-14a-(((1-(fluoromethyl)cyclopropyl)sulfonyl)carbamoyl)-7,9-dimethyl-5,16-dioxo-1,2,3,5,6,7,8,9,10,11,13a,14,14a,15,16,16a-hexadecahydrocyclopropa[e]pyrrolo[1,2-a][1,4]diazacyclopentadecin-6-yl)carbamate], for which the EC50 in test [1] is 1.01 to 5 nM; in test [2] it was 0.1 to 0.5 nM.
Regarding `CC[C@@H]1C[C@H](C)CC/C=C\[C@@H]2C[C@@]2(C(=O)NS(=O)(=O)C2(C)CC2)NC(=O)[C@@H]2C[C@@H](Oc3nc(OC)cc4cc(F)ccc34)CN2C(=O)[C@H]1NC(=O)OC(C)(C)C(C)(F)F` [Compound 3216, 3,3-difluoro-2-methylbutan-2-yl((2R,6S,7R,9R,13aS,14aR,16aS,Z)-7-ethyl-2-((6-fluoro-3-methoxyisoquinolin-1-yl)oxy)-9-methyl-14a-(((1-methylcyclopropyl)sulfonyl)carbamoyl)-5,16-dioxo-1,2,3,5,6,7,8,9,10,11,13a,14,14a,15,16,16a-hexadecahydrocyclopropa[e]pyrrolo[1,2-a][1,4]diazacyclopentadecin-6-yl)carbamate], the EC50 in test [1] is 1.01 to 5 nM; in test [2], 0.1 to 0.5 nM.
On to `COc1cc2cc(F)ccc2c(O[C@@H]2C[C@H]3C(=O)N[C@]4(C(=O)NS(=O)(=O)C5(CF)CC5)C[C@H]4/C=C\CC[C@@H](C)C[C@@H](C)[C@H](NC(=O)OC(C)(C)C(C)(F)F)C(=O)N3C2)n1` [Compound 3218, 3,3-difluoro-2-methylbutan-2-yl((2R,6S,7R,9R,13aS,14aR,16aS,Z)-2-((6-fluoro-3-methoxyisoquinolin-1-yl)oxy)-14a-(((1-(fluoromethyl)cyclopropyl)sulfonyl)carbamoyl)-7,9-dimethyl-5,16-dioxo-1,2,3,5,6,7,8,9,10,11,13a,14,14a,15,16,16a-hexadecahydrocyclopropa[e]pyrrolo[1,2-a][1,4]diazacyclopentadecin-6-yl)carbamate], for which the EC50 was 1.01 to 5 nM in test [1] and 0.1 to 0.5 nM in test [2].
